Assay results from patent publication US6280768A, “Berberine alkaloids as a treatment for chronic protozoally induced diarrhea” (PRM Pharmaceuticals, Inc., priority 1997, dated 2001).
Like-named read-outs stand apart in the source and are kept apart here.

Columns and labels:
G.lamblia = test: In vitro growth inhibition of Giardia lamblia; type: cell-based; conditions: Giardia duodenalis; for activity at 30 µg/mL / activity at 62 µg/mL / activity at 125 µg/mL / activity at 250 µg/mL / activity at 500 µg/mL / activity at 1000 µg/mL: 48 h; for activity at 30 µg/mL: 30 μg/ml; for activity at 62 µg/mL: 62 μg/ml; for activity at 125 µg/mL: 125 μg/ml; for activity at 250 µg/mL: 250 μg/ml; for activity at 500 µg/mL: 500 μg/ml; for activity at 1000 µg/mL: 1000 μg/ml
Excerpt: (§1) The protozoa tested were established strains of 3 extracellular protozoan parasites; (1) Giardia lamblia, (2) Trichomonas vaginalis, (3) Entamoeba histolytica, and the intracellular microsporidian parasite (4) Encephalitozoon intestinalis.
(§2) Culture conditions and media for (1)-(3) and methods for assaying drug susceptibility were as described in Katiyar, S K and Edlind T D, Enhanced Antiparasitic Activity of Lipophilic Tetracyclines: Role of Uptake, Antimicrob. Agents Chemother., vol. 35:2198-2202 (1991), incorporated herein by reference.
(§3) Cultures of the extracellular parasites were started from frozen stocks and passaged several times over a 2-3 week period to ensure viability, maximal growth rate, and lack of contamination. On day 1 of the assay, log phase cultures were diluted to 5×10^4 cells/ml in fresh medium and aliquoted to 2 ml vials, which were filled to maintain anaerobic conditions. The berberine was dissolved and diluted in water to various concentrations and then added to the cultures. "negative controls" received the vehicle alone.
(§4) Cultures were incubated at 37° C. with slow rotation. After 48 hours (for T. vaginalis and G. lamblia) and 72 hours (for E. histolytica), cell numbers were determined using a hemocytometer. The concentration of compound inhibiting growth 50% (IC50) relative to controls was estimated from dose response plots. The assays were repeated at least twice.
(§5) Initially, the berberine was tested over a wide range of concentrations (0.1, 1, 10, 100 and 1000 μg/ml).

T.vaginalis = test: In vitro growth inhibition of Trichomonas vaginalis; type: cell-based; conditions: for activity at 30 µg/mL / activity at 62 µg/mL / activity at 125 µg/mL / activity at 250 µg/mL / activity at 500 µg/mL / activity at 1000 µg/mL: 48 h; for activity at 30 µg/mL: 30 μg/ml; for activity at 62 µg/mL: 62 μg/ml; for activity at 125 µg/mL: 125 μg/ml; for activity at 250 µg/mL: 250 μg/ml; for activity at 500 µg/mL: 500 μg/ml
Excerpt: as §1, §2, §3, §4, §5

E.histolytica = test: In vitro growth inhibition of Entamoeba histolytica; type: cell-based; conditions: for activity at 30 µg/mL: 30 μg/ml; for activity at 125 µg/mL: 125 μg/ml; for activity at 500 µg/mL: 500 μg/ml; for activity at 1000 µg/mL: 1000 μg/ml
Excerpt: as §1, §2, §3, §4, §5

E. intestinalis = test: In vitro growth (spore numbers) of E. intestinalis in infected Vero cells; type: cell-based, Encephalitozoon intestinalis
Excerpt: as §1
Cultures of E. intestinalis infected African green monkey kidney (Vero) cells were kindly provided by G. S. Visvesvara, CDC, Atlanta, Ga. The E. intestinalis was originally isolated from the urine of an AIDS patient (J. Clin. Microbiol. 33:930-936, 1995).
Cells were grown in T25 flasks at 37° C. in a humidified CO2 incubator, and subcultured when confluent (every 3-4 days). The medium was MEM supplemented with Earle's salts, L-glutamine, 5% heat-inactivated fetal bovine serum, fungizone (2 μg/ml) and gentamicin (50 μg/ml). E. intestinalis spores were prepared by centrifugation of infected cell medium (3-4 days old) at 2000×g for 15 min, followed by suspension in fresh medium to give 1-20×10^4 spores/ml (determined with a hemocytometer). […]
Every 72-96 h after infection, the medium was completely removed, discarded, and replaced with fresh medium plus berberine. The medium from the 4th change (2-3 weeks post infection) was collected into tubes and spore numbers were determined in a hemocytometer. […] Consequently, spore numbers after 3-4 medium changes provided a quantitative measure of the effects of berberine on microsporidia growth.

diarrhea = test: Prophylactic use of berberines in HIV infected patients (Example 7); type: in vivo, human; conditions: low dose of Example 2, two months, 25 patients
Protocol: Twenty five (25) HIV infected patients, 18 years of age or older, not presenting with chronic diarrhea, are selected. Blood specimens are evaluated to confirm that each patient is HIV seropositive.
Each of the twenty five (25) patients receives a treatment with berberine according to the low dose of Example 2 for a period of two months.

[1] = oral, high doses; cited from earlier work
microsporidia [2] = test: Protoberberines in a hamster animal model of microsporidial chronic diarrhea (Example 5); type: in vivo; conditions: 52 mg/kg/day oral; for condition of the hamsters / diarrhea: after 10 days; for presence of microsporidia in intestinal biopsy: following therapy
Protocol: (§6) Ten hamsters suffering from chronic diarrhea caused by microsporidia are randomized into two groups of 5 hamsters. One group receives the protoberberine palmatine and the second group receives the protoberberine dihydroberberine. The protoberberines are administered orally at a dose rate of 52 mg/kg/day for ten (10) days.

microsporidia [3] = test: Protoberberines in a mouse animal model of microsporidial chronic diarrhea (Example 6); type: in vivo; conditions: 52 mg/kg/day oral; for condition of the mice / diarrhea: after 10 days; for presence of microsporidia in intestinal biopsy: following therapy
Protocol: as §6, with “mice” for “hamsters”, “mice.” for “hamsters.”, “jatrorrhizine.” for “dihydroberberine.”

cryptosporidia = conditions: cited from earlier work
Cryptosporidium parvum = conditions: in vivo; cited from earlier work
[4] = growth, 48 hours, estimated from dose response plots

## COc1ccc2cc3[n+](cc2c1OC)CCc1cc2c(cc1-3)OCO2.Cl [berberine hydrochloride, 5,6-Dihydro-9,10-dimethoxybenzo[g]-1,3-benzodioxolo[5,6-a]quinolizinium hydrochloride]
G.lamblia; Exp. 1
  activity at 30 µg/mL: 99%
  activity at 62 µg/mL: 89%
  activity at 125 µg/mL: 79%
  activity at 250 µg/mL: 63%
  activity at 500 µg/mL: 40%
  activity at 1000 µg/mL: 9%
G.lamblia; Exp. 2
  activity at 30 µg/mL: 97%
  activity at 62 µg/mL: 85%
  activity at 125 µg/mL: 69%
  activity at 250 µg/mL: 59%
  activity at 500 µg/mL: 44%
  activity at 1000 µg/mL: 20%
G.lamblia; Exp. 3
  activity at 62 µg/mL: 88%
  activity at 125 µg/mL: 75%
  activity at 250 µg/mL: 52%
  activity at 500 µg/mL: 32%
  activity at 1000 µg/mL: 5%
G.lamblia; [4]
  IC50: 350 µg/mL
T.vaginalis; Exp. 1
  activity at 30 µg/mL: 93%
  activity at 62 µg/mL: 90%
  activity at 125 µg/mL: 59%
  activity at 250 µg/mL: 20%
  activity at 500 µg/mL: 2%
T.vaginalis; Exp. 2
  activity at 30 µg/mL: 99%
  activity at 62 µg/mL: 98%
  activity at 125 µg/mL: 60%
  activity at 250 µg/mL: 28%
  activity at 500 µg/mL: 3%
T.vaginalis; Exp. 3
  activity at 30 µg/mL: 96%
  activity at 62 µg/mL: 98%
  activity at 125 µg/mL: 60%
  activity at 250 µg/mL: 45%
  activity at 500 µg/mL: 22%
T.vaginalis; 1000 μg/ml, Exp. 1, read-out: % growth
  activity at 1000 µg/mL: 1%
T.vaginalis; 1000 μg/ml, Exp. 2, read-out: % growth
  activity at 1000 µg/mL: 1%
T.vaginalis; read-out: % growth, 1000 μg/ml, Exp. 3
  activity at 1000 µg/mL: 6.8%
T.vaginalis; [4]
  IC50: 170 µg/mL
E.histolytica; 72 h, Exp. 1
  activity at 30 µg/mL: 102%
  activity at 125 µg/mL: 100%
  activity at 500 µg/mL: 100%
  activity at 1000 µg/mL: 72%
E.histolytica; 72 h, Exp. 2
  activity at 30 µg/mL: 101%
  activity at 125 µg/mL: 101%
  activity at 500 µg/mL: 96%
  activity at 1000 µg/mL: 76%
E.histolytica; 72 h, 62 μg/ml, Exp. 2
  activity at 62 µg/mL: 90%
E.histolytica; 72 h, 250 μg/ml, Exp. 2
  activity at 250 µg/mL: 101%
E.histolytica; growth, 72 hours, estimated from dose response plots
  IC50: > 1000 µg/mL
E. intestinalis
  activity against the microsporidium E. intestinalis: showed activity against the microsporidium E. intestinalis

## COc1ccc2cc3[n+](cc2c1OC)CCc1cc2c(cc1-3)OCO2 [berberine, 5,6-Dihydro-9,10-dimethoxybenzo[g]-1,3-benzodioxolo[5,6-a]quinolizinium]
diarrhea
  tolerability / adverse reactions: all of the patients tolerate the treatment well with no or minimal adverse reactions
[1]
  toxicity: nontoxic at high doses

## COc1ccc2c(c1OC)CN1CCc3cc4c(cc3C1=C2)OCO4 [dihydroberberine]
Microsporidia [2]
  condition of the hamsters: improved
  diarrhea: none of the hamsters have diarrhea
  presence of microsporidia in intestinal biopsy: does not reveal the presence of microsporidia

## COc1cc2c(cc1O)CC[n+]1cc3c(OC)c(OC)ccc3cc1-2 [jatrorrhizine]
Microsporidia [3]
  condition of the mice: improved
  diarrhea: none of the mice have diarrhea
  presence of microsporidia in intestinal biopsy: does not reveal the presence of microsporidia

## C[C@@H](O)[C@@H]1NC(=O)[C@H](CCCCN)NC(=O)[C@@H](Cc2c[nH]c3ccccc23)NC(=O)[C@H](Cc2ccccc2)NC(=O)[C@@H](NC(=O)[C@H](N)Cc2ccccc2)CSSC[C@@H](C(=O)N[C@H](CO)[C@@H](C)O)NC1=O [octreotide]
cryptosporidia; AIDS patients
  control of gastrointestinal secretion: control the voluminous gastrointestinal secretion
cryptosporidia; following cessation of treatment
  return of diarrhea: diarrhea promptly returns

## COc1cc2c(cc1OC)-c1cc3ccc(OC)c(OC)c3c[n+]1CC2 [palmatine]
Microsporidia [2]
  condition of the hamsters: improved
  diarrhea: none of the hamsters have diarrhea
  presence of microsporidia in intestinal biopsy: does not reveal the presence of microsporidia
Microsporidia [3]
  condition of the mice: improved
  diarrhea: none of the mice have diarrhea
  presence of microsporidia in intestinal biopsy: does not reveal the presence of microsporidia

## NC[C@@H]1O[C@H](O[C@H]2[C@@H](O)[C@H](O[C@@H]3[C@@H](O)[C@H](N)C[C@H](N)[C@H]3O[C@H]3O[C@H](CO)[C@@H](O)[C@H](O)[C@H]3N)O[C@@H]2CO)[C@H](N)[C@@H](O)[C@@H]1O [paromomycin]
Cryptosporidium parvum
  relapse after cessation of treatment: common
